Test results taken from the supplement of paper PMC11061612.

What was measured:
Experiment in all cases: combination Emax (second highest fraction inhibited in the dose matrix, 72 h); higher = more inhibition; extreme values may be limits of the assay
[1] = system: SU-DHL-8 (B-Cell Non-Hodgkin's Lymphoma)
Method in brief: (§1)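 Cell lines in DMEM/F12 or RPMI with 10% FBS were plated in 1536-well plates, held 24 hours at 37°C, 5% CO2, then given two-drug dose matrices for 72 hours (DMSO typically 0.2%). Viability was read by CellTiter-Glo 2.0 luminescence and scaled as inhibition from 0 (vehicle wells) to 1 (blank wells). Combination Emax is the second-highest inhibition in the matrix; Bliss excess is observed combination effect minus expected EA + EB − EA·EB, EA and EB being single-agent effects.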

[2] = system: DND-41 (T-Lymphoblastic Leukemia)
Method in brief: as §1

[3] = system: KARPAS-45 (T-Lymphoblastic Leukemia)
Method in brief: as §1

[4] = system: KM12 (Colorectal Carcinoma)
Method in brief: as §1

[5] = system: MOLT-16 (T-Lymphoblastic Leukemia)
Method in brief: as §1

[6] = system: CHP-212 (Neuroblastoma)
Method in brief: as §1

[7] = system: NCI-H1792 (Lung Adenocarcinoma)
Method in brief: as §1

[8] = system: SW1417 (Colorectal Carcinoma)
Method in brief: as §1

[9] = system: COLO-678 (Colorectal Carcinoma)
Method in brief: as §1

[10] = system: HL-60 (Acute Myeloid Leukemia)
Method in brief: as §1

[11] = system: BFTC-905 (Bladder Carcinoma)
Method in brief: as §1

[12] = system: TOV-112D (Ovarian Carcinoma)
Method in brief: as §1

[13] = system: SR (Other Blood Carcinomas)
Method in brief: as §1

[14] = system: KCL-22 (Chronic Myelogenous Leukemia)
Method in brief: as §1

[15] = system: PANC-08-13 (Pancreatic Carcinoma)
Method in brief: as §1

[16] = system: CAMA-1 (Breast Carcinoma)
Method in brief: as §1

[17] = system: BL-41 (Burkitt's Lymphoma)
Method in brief: as §1

[18] = system: MFM-223 (Breast Carcinoma)
Method in brief: as §1

[19] = system: L-540 (Hodgkin's Lymphoma)
Method in brief: as §1

[20] = system: MS751 (Cervical Carcinoma)
Method in brief: as §1

| SMILES | combination Emax [1] | combination Emax [2] | combination Emax [3] | combination Emax [4] | combination Emax [5] | combination Emax [6] | combination Emax [7] | combination Emax [8] | combination Emax [9] | combination Emax [10] | combination Emax [11] | combination Emax [12] | combination Emax [13] | combination Emax [14] | combination Emax [15] | combination Emax [16] | combination Emax [17] | combination Emax [18] | combination Emax [19] | combination Emax [20] |
| --- | --- | --- | --- | --- | --- | --- | --- | --- | --- | --- | --- | --- | --- | --- | --- | --- | --- | --- | --- | --- |
| CS(=O)(=O)CCNCc1ccc(-c2ccc3ncnc(Nc4ccc(OCc5cccc(F)c5)c(Cl)c4)c3c2)o1 [Lapatinib] + C[C@@H](Oc1cc(-c2cnn(C3CCNCC3)c2)cnc1N)c1c(Cl)ccc(F)c1Cl [Crizotinib] (first compound max 10 µM, 7x7, partner max 10 µM) | 0.694 | 0.946 | 1 | 0.93 | 0.992 | 0.988 | 0.924 | 0.669 | 0.62 | 0.941 | 0.963 | 0.791 | 1 | 0.979 | 0.802 | 0.321 | 0.96 | 0.662 | 0.911 | 0.987 |
| CC(=O)c1c(C)c2cnc(Nc3ccc(N4CCNCC4)cn3)nc2n(C2CCCC2)c1=O [Palbociclib] + CC1(C)CCC(CN2CCN(c3ccc(C(=O)NS(=O)(=O)c4ccc(NCC5CCOCC5)c([N+](=O)[O-])c4)c(Oc4cnc5[nH]ccc5c4)c3)CC2)=C(c2ccc(Cl)cc2)C1 [Venetoclax] (first compound max 10 µM, 7x7, partner max 1 µM) | 0.37 | 0.45 | 1 | 0.683 | 0.985 | 0.481 | 0.465 | 0.147 | 0.222 | 0.736 | 0.326 | 0.443 | 0.94 | 0.513 | 0.157 | 0.142 | 0.312 | 0.346 | 0.257 | 0.128 |
| CC(=O)c1c(C)c2cnc(Nc3ccc(N4CCNCC4)cn3)nc2n(C2CCCC2)c1=O [Palbociclib] + Cc1c2c(nn1C)CSCc1cc(n(C)n1)CSc1cc(c3ccccc3c1)OCCCc1c(C(=O)O)n(C)c3c-2c(Cl)ccc13 [AZD5991] (first compound max 10 µM, 7x7, partner max 1 µM) | 0.683 | 0.51 | 0.99 | 0.752 | 1 | 0.882 | 0.571 | 0.229 | 0.351 | 0.994 | 0.474 | 0.776 | 0.993 | 0.673 | 0.221 | 0.408 | 0.998 | 0.388 | 0.981 | 0.833 |
| CC(=O)c1c(C)c2cnc(Nc3ccc(N4CCNCC4)cn3)nc2n(C2CCCC2)c1=O [Palbociclib] + Cn1cnc2c(F)c(Nc3ccc(Br)cc3Cl)c(C(=O)NOCCO)cc21 [Selumetinib] (first compound max 10 µM, 7x7, partner max 10 µM) | 0.32 | 0.489 | 0.964 | 0.768 | 0.827 | 0.979 | 0.651 | 0.512 | 0.525 | 0.667 | 0.746 | 0.473 | 0.873 | 0.569 | 0.221 | 0.102 | 0.433 | 0.317 | 0.25 | 0.236 |
| COc1cccc(OCCCN)c1-c1cc(Nc2cnc(C#N)cn2)n[nH]1 [Prexasertib] + C=CCn1c(=O)c2cnc(Nc3ccc(N4CCN(C)CC4)cc3)nc2n1-c1cccc(C(C)(C)O)n1 [AZD1775] (first compound max 1 µM, partner max 1 µM) | 0.964 | 0.88 | 1 | 0.862 | 1 | 0.811 | 0.915 | 0.64 | 0.307 | 0.97 | 0.96 | 0.815 | 1 | 0.997 | 0.544 | 0.545 | 1 | 0.897 | 0.967 | 0.701 |
| COc1cccc(OCCCN)c1-c1cc(Nc2cnc(C#N)cn2)n[nH]1 [Prexasertib] + CCc1c2c(nc3ccc(O)cc13)-c1cc3c(c(=O)n1C2)COC(=O)[C@]3(O)CC [SN-38] (first compound max 1 µM, 7x7, partner max 0.3 µM) | 1 | 0.943 | 1 | 0.939 | 1 | 0.827 | 0.893 | 0.856 | 0.26 | 0.982 | 0.983 | 0.987 | 0.998 | 0.989 | 0.702 | 0.507 | 1 | 0.881 | 0.95 | 0.984 |
| COc1cccc(OCCCN)c1-c1cc(Nc2cnc(C#N)cn2)n[nH]1 [Prexasertib] + CN(C)CCCOc1ccc(-c2ccc3ncc4c(c3c2)n(C2CCOCC2)c(=O)n4C)cn1 [AZD0156] (first compound max 1 µM, 7x7, partner max 1 µM) | 0.964 | 0.811 | 0.971 | 0.775 | 1 | 0.782 | 0.825 | 0.619 | 0.0457 | 0.956 | 0.888 | 0.614 | 1 | 1 | 0.467 | 0.327 | 1 | 0.74 | 0.968 | 0.378 |
| COc1cccc(OCCCN)c1-c1cc(Nc2cnc(C#N)cn2)n[nH]1 [Prexasertib] + C[C@@H]1COCCN1C2=NC(=NC(=C2)C3(CC3)[S@](=N)(=O)C)C4=C5C=CNC5=NC=C4 [AZD6738] (first compound max 1 µM, 7x7, partner max 10 µM) | 0.964 | 0.891 | 0.979 | 0.767 | 1 | 0.788 | 0.832 | 0.629 | 0.136 | 0.971 | 0.917 | 0.796 | 1 | 0.999 | 0.49 | 0.417 | 1 | 0.814 | 0.963 | 0.383 |
| COc1cccc(OCCCN)c1-c1cc(Nc2cnc(C#N)cn2)n[nH]1 [Prexasertib] + Cc1cc2ncnn2cc1Nc1ncc2c(n1)n(C1CCOCC1)c(=O)n2C [AZD7648] (first compound max 1 µM, 7x7, partner max 10 µM) | 0.968 | 0.844 | 0.981 | 0.796 | 1 | 0.814 | 0.87 | 0.667 | 0.0565 | 0.961 | 0.856 | 0.711 | 1 | 1 | 0.587 | 0.384 | 1 | 0.763 | 0.962 | 0.453 |
| COc1cccc(OCCCN)c1-c1cc(Nc2cnc(C#N)cn2)n[nH]1 [Prexasertib] + O=C(c1cc(Cc2n[nH]c(=O)c3ccccc23)ccc1F)N1CCN(C(=O)C2CC2)CC1 [Olaparib] (first compound max 1 µM, 7x7, partner max 10 µM) | 0.943 | 0.85 | 0.979 | 0.756 | 1 | 0.756 | 0.84 | 0.614 | 0.169 | 0.961 | 0.848 | 0.796 | 0.996 | 0.953 | 0.536 | 0.37 | 1 | 0.703 | 0.975 | 0.465 |
| COc1cc2c(cc1OCCCCCOc1cc3c(cc1OC)C(=O)N1C=C(C)C[C@H]1C=N3)N=C[C@@H]1CC(C)=CN1C2=O [SG3199] + O=C(c1cc(Cc2n[nH]c(=O)c3ccccc23)ccc1F)N1CCN(C(=O)C2CC2)CC1 [Olaparib] (first compound max 0.001 µM, 7x7, partner max 10 µM) | 0.55 | 0.216 | 0.0966 | 0.113 | 0.659 | 0.384 | 0.144 | 0.0642 | 0.13 | 0.133 | 0.152 | 0.269 | 0.445 | 0.176 | 0.101 | 0.109 | 0.107 | 0.128 | 0.32 | 0.176 |
| CCc1c2c(nc3ccc(O)cc13)-c1cc3c(c(=O)n1C2)COC(=O)[C@]3(O)CC [SN-38] + CN(C)CCCOc1ccc(-c2ccc3ncc4c(c3c2)n(C2CCOCC2)c(=O)n4C)cn1 [AZD0156] (first compound max 0.3 µM, 7x7, partner max 1 µM) | 0.992 | 0.934 | 0.305 | 0.716 | 1 | 0.747 | 0.757 | 0.662 | 0.268 | 0.968 | 0.957 | 0.965 | 0.994 | 0.921 | 0.131 | 0.208 | 1 | 0.243 | 0.951 | 0.883 |
| C[C@@H](c1ccc2nccn2c1)n1nnc2ncc(-c3cnn(C)c3)nc21 [Savolitinib] + CC1(C)CCC(CN2CCN(c3ccc(C(=O)NS(=O)(=O)c4ccc(NCC5CCOCC5)c([N+](=O)[O-])c4)c(Oc4cnc5[nH]ccc5c4)c3)CC2)=C(c2ccc(Cl)cc2)C1 [Venetoclax] (first compound max 1 µM, 7x7, partner max 1 µM) | 0.288 | 0.233 | 0.322 | 0.058 | 0.58 | 0.108 | 0.108 | 0.126 | 0.146 | 0.658 | 0.164 | 0.0298 | 0.437 | 0.137 | 0.109 | 0.17 | 0.106 | 0.0596 | 0.246 | 0.176 |
